Data as given in US20170044100A1, “INHIBITORS OF DRUG-RESISTANT MYCOBACTERIUM TUBERCULOSIS” (THE JOHNS HOPKINS UNIVERSITY, priority 2014, published 2017).
Values after ≈ are worked out from the molar mass of the structure shown. Where two headings read alike, the source gives them in different places.

Tests used:
[1] = system: M. tuberculosis strain H37Rv; experiment: microbe, parasite or virus in culture; type: cell-based, Mycobacterium tuberculosis; parameters: MICMABA: unit not given here; settings: for MICMABA: H37Rv, MABA, Table 9; for MIC: Mycobacterium tuberculosis
M. tuberculosis H37Rv [2] = type: cell-based, Mycobacterium tuberculosis; settings: 4× MIC
Vero cells = experiment: Cytotoxicity assay on Vero cells (alamar blue); settings: for IC50: Chlorocebus sabaeus, Vero
[3] = Cytotoxicity assay on Vero cells (alamar blue); settings: African green monkey, Vero cells (ATCC CCL-81)
M. tuberculosis H37Rv [4] = experiment: microbe, parasite or virus in culture; type: cell-based, Mycobacterium tuberculosis; parameters: MICBD / MBCBD: unit not given here; settings: for MBC: Mycobacterium tuberculosis, H37RV, read-out: minimum bactericidal concentration (MBC); for MBCBD / MICBD: H37Rv, broth dilution, Table 9
M. tuberculosis H37Rv [5] = type: in vivo, BALB/c mice
[6] = system: V4207 (drug susceptible strain of M. tuberculosis); experiment: microbe, parasite or virus in culture; type: cell-based; settings: Mycobacterium tuberculosis, MABA, read-out: MIC V4207 (DS)
[7] = parameters: species or system BALB/c mice; settings: mouse, in vivo
Experimental: Female BALB/c mice (20 g each, Charles River Laboratories) were given a single dose of compound 12 at 100 mg/kg by oral gavage in a volume of 0.2 mL. […] Mouse lungs were removed, weighed and stored at −80° C. Plasma was separated by centrifugation at 12,000 x g for 20 min at 4° C. and stored at −80° C. Mouse lungs were homogenized by bead-beating in 0.5 mL of liquid chromatography/mass spectrometry (LC/MS) water and supernatants were recovered by centrifugation at 4° C. for 20 min. Concentrations of compound 12 in plasma and lung homogenate supernatants were analyzed with LC-tandem MS (LC-MS/MS, AB SCIEX QTRAP 5500 system) with compound 2 as internal standard. MS detection of mass transitions 299.01/146.1 and 299.01/131.1 was carried out. Concentration calculation was done with MultiQuant Software (Version 2.1, AB SCIEX). The pharmacokinetic profile of the test compound was analyzed from plasma and lung concentration-time data after oral administration.
A single 100 mg/kg dose of compound 12 was administered to 24 mice (3 per time point). Plasma and lung concentration of compound 12 was determined by liquid chromatography-tandem mass spectrometry.

in vitro = settings: African green monkey, IC50 (cytotoxicity against Vero cells), Table 1
[8] = control strains H37Rv and V4207, read-out: MIC
[9] = parental H37Rv strain, read-out: MIC for H37Rv
[10] = read-out: IC50 Vero Cells, Vero cells, Table 9

Compound	MICMABA [1]	MIC ([1]; H37RV)	MIC [1, 8]	MIC [1, 9]	MBC (M. tuberculosis H37Rv [4])	MIC [6]	IC50 (in vitro)	IC50 (Vero cells; [10])	MBCBD (M. tuberculosis H37Rv [4])	MICBD (M. tuberculosis H37Rv [4])	further results
Cc1cc(C)c2cc(C(=O)NC3CCCCCCC3)[nH]c2c1 [Compound 12, N-Cyclooctyl-4,6-dimethyl-1H-indole-2-carboxamide]	0.0039	0.013 µM	0.0039 µg/mL	0.0039 µg/mL	0.0078 µg/mL (≈ 0.0261 µM)	0.026 µM (≈ 0.00776 µg/mL)	–	–	–	–	MIC for H37Rv ([1]; parental H37Rv strain): 0.0039 µg/mL; time to kill at least 4 log10 CFUs (M. tuberculosis H37Rv [2]): ≤ 5 days; IC50 (Vero cells; read-out: IC50 Vero Cells): 16 µg/mL (≈ 53.6 µM); Selectivity Index (Vero cells; Vero IC50 versus MIC, Table 9): 4000; selectivity index (Vero cells; toxicity versus MIC): 4000; IC50 at 72 h [3]: 54 µM; Mean lung CFU counts (standard deviation), Day 7 (M. tuberculosis H37Rv [5]; 33.3 mg/kg oral gavage daily (5 days per week)): 7.184 (0.244); Mean lung CFU counts (standard deviation), Day 14 (M. tuberculosis H37Rv [5]; 33.3 mg/kg oral gavage daily): 7.001 (0.206); Mean lung CFU counts (standard deviation), Day 28 (M. tuberculosis H37Rv [5]; 33.3 mg/kg oral gavage daily): 6.919 (0.112); Mean lung CFU counts (standard deviation), Day 7 (M. tuberculosis H37Rv [5]; 100 mg/kg oral gavage daily): 6.902 (0.243); Mean lung CFU counts (standard deviation), Day 14 (M. tuberculosis H37Rv [5]; 100 mg/kg oral gavage daily): 7.122 (0.148); Mean lung CFU counts (standard deviation), Day 28 (M. tuberculosis H37Rv [5]; 100 mg/kg oral gavage daily): 6.803 (0.068); Mean lung CFU counts (standard deviation), Day 7 (M. tuberculosis H37Rv [5]; 300 mg/kg oral gavage daily): 6.768 (0.329); Mean lung CFU counts (standard deviation), Day 14 (M. tuberculosis H37Rv [5]; 300 mg/kg oral gavage daily): 6.981 (0.305); Mean lung CFU counts (standard deviation), Day 28 (M. tuberculosis H37Rv [5]; 300 mg/kg oral gavage daily): 6.746 (0.157); lung CFU counts compared to untreated mice (M. tuberculosis H37Rv [5]; after four weeks of treatment, 33, 100 and 300 mg/kg daily oral gavage): significantly lower; oral bioavailability in mice [7]: orally bioavailable; AUC0-24, lung ([7]; po, 100 mg/kg): 31.40 mg·h/kg
Cc1cc(C)c2cc(C(=O)Nc3ccccc3)[nH]c2c1 [Compound 4, N-Phenyl-4,6-dimethyl-1H-indole-2-carboxamide]	1	3.8 µM	–	–	–	–	> 200 µM	> 64 µg/mL	8	1	–
Cc1cc(C)c2cc(C(=O)NC3CCCCC3)[nH]c2c1 [Compound 3, N-Cyclohexyl-4,6-dimethyl-1H-indole-2-carboxamide]	0.125	0.93 µM	0.125 to 0.25 µg/mL	0.125 to 0.25 µg/mL	0.25 µg/mL (≈ 0.925 µM)	0.93 µM (≈ 0.251 µg/mL)	> 200 µM	> 64 µg/mL	0.25	0.25	Selectivity Index (Vero cells): >256; selectivity index (Vero cells): > 256; IC50 for Vero cell viability (Vero cells; Vero cell line): 16 µg/mL
